One test deals with Artemia salina. Briefly: Toxicity against Artemia salina (brine shrimp). Format: functional.
The test system of a further test is Spodoptera littoralis. In words: Antifeedant activity against fifth-instar larvae of Spodoptera littoralis at 10 ug/cm'2 by disk-choice assay. Format: functional.

≈ marks a conversion by molar mass, not a printed value.

For orientation: LC50 means the concentration that kills 50% of the test population.

In the test on Artemia salina, `CC(=O)Oc1ccc(/C=C/C(=O)O)cc1CC=C(C)C` came in with an LC50 below 50 µg/mL. With `CC(=O)OC/C=C(/CC[C@@]1(C)[C@H](C)CC[C@@]2(CO)C(COC(C)=O)=CCC[C@@H]21)COC(C)=O`, the FR50 in the test with Spodoptera littoralis turned out to be 0.99. Besides, the LC50 in the test on Artemia salina was above 100 µg/mL.

Regarding `COc1cc(-c2oc3cc(O)cc(O)c3c(=O)c2OC)ccc1O` [3,3'-O-DIMETHYLQUERCETIN], the LC50 in the test with Artemia salina is at most 10 µg/mL. Still for that read-out and setting: under `COc1c(-c2ccc(O)c(O)c2)oc2cc(O)cc(O)c2c1=O` [3-O-METHYLQUERCETIN] stands 10 µg/mL (≈ 31.6 µM).

In the test on Spodoptera littoralis, `C=C(COC(C)=O)C1Cc2cc(O)c(C(C)=O)cc2O1` (centres undefined) [ACETYLATED DIHYDROBENZOFURAN] registered an FR50 of 0.75. In the test on Artemia salina, this compound had an LC50 of at most 10 µg/mL. Taken in the same sequence, the figures for `CC1(C)CC[C@]2(CO)CC[C@]3(C)C(=CC[C@@H]4[C@@]5(C)CC[C@H](O)C(C)(C)[C@@H]5CC[C@]43C)[C@@H]2C1` [ERYTHRODIOL] were 0.88 and 50 µg/mL (≈ 113 µM). In the case of `COc1c(-c2ccc(O)cc2)oc2cc(O)cc(O)c2c1=O` [ISOKAEMPFERIDE], the LC50 in the test with Artemia salina is at most 10 µg/mL.

For the compound `CCCC#CC#C/C=C/C(=O)OC` [LACHNOPHYLLUM ESTER], the FR50 in the test with Spodoptera littoralis amounted to 0.31. The LC50 in the test with Artemia salina was found to be 5 µg/mL (≈ 28.4 µM). Consider `CC1(C)CC[C@]2(C(=O)O)CC[C@]3(C)C(=CC[C@@H]4[C@@]5(C)C[C@@H](O)[C@H](O)C(C)(C)[C@@H]5CC[C@]43C)[C@@H]2C1` [MASLINIC ACID], for which the FR50 in the test with Spodoptera littoralis turned out to be 1.34. The LC50 with Artemia salina is 20.2 µg/mL (≈ 42.7 µM). The matching figures for `CC1(C)CC[C@]2(C(=O)O)CC[C@]3(C)C(=CC[C@@H]4[C@@]5(C)CC[C@H](O)C(C)(C)[C@@H]5CC[C@]43C)[C@@H]2C1` [OLEANOLIC_ACID]: 1.34 and 10 µg/mL (≈ 21.9 µM). For `C=C1CC[C@@H]2[C@H]([C@H]3[C@H]1CC[C@]3(C)O)C2(C)C` [SPATHULENOL], in the test with Artemia salina, the LC50 was below 3 µg/mL. In the case of `COC(=O)/C=C/c1ccc2c(c1)C=CC(C)(C)O2` [WERNERIACHROMENE], the FR50 in the test on Spodoptera littoralis is listed as 0.2. The compound further had an LC50 with Artemia salina below 3 µg/mL.
